In experiment [1] the target is T1, Human immunodeficiency virus type 1 integrase (Human immunodeficiency virus 1, UniProt Q7ZJM1). In words: Inhibitory activity against DNA strand transfer by HIV integrase.
Experiment [2] has as its target T1, Human immunodeficiency virus type 1 integrase. The experiment can be described thus: Inhibitory activity against 3' processing by HIV integrase.

Structures are written as SMILES.

T1 sequence (Q7ZJM1 whole entry): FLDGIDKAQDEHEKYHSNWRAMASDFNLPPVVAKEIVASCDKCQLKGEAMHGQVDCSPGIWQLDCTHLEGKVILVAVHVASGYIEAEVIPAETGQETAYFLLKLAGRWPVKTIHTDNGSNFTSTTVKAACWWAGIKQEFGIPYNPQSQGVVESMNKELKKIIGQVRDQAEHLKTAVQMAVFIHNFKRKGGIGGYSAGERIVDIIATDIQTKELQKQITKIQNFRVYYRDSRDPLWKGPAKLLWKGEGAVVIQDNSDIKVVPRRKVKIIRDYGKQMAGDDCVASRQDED

In general, IC50 refers to the concentration at which inhibition is half-maximal. Lower therefore signals greater potency in that assay. Turning to `Cc1ccc(Nc2n[nH]c(NS(=O)(=O)c3cc(C)c(Cl)cc3S)n2)cc1`, the IC50 in experiment [1] was 24 µM; in experiment [2], 22.4 µM.
The corresponding values for `Cc1cc(S(=O)(=O)Nc2nnc3c4ccccc4ccn23)c(S)cc1Cl` are 10.7 µM and 13.2 µM.
The corresponding values for `O=S(=O)(Nc1nnc2n1-c1ccccc1CC2)c1ccc(Cl)cc1S` are 19.5 µM and 21.9 µM.
The corresponding values for `Cc1ccnc(NS(=O)(=O)c2ccc(/N=N/c3cc4ccccc4c(C(=O)O)c3O)cc2)n1` are 32.4 µM and 19.5 µM.
As to `CCC(C)n1cnnc1NS(=O)(=O)c1cc(C(=O)Nc2ccc(C)cc2)c(Cl)cc1S` (configuration not stated), the IC50 in experiment [1] was 112 µM; in experiment [2], 200 µM.
The corresponding values for `Cc1cc(S(=O)(=O)Nc2nnc3ccccn23)c(S)cc1Cl` are 110 µM and 123 µM.
The matching figures for `O=S(=O)(Nc1nccs1)c1ccc(/N=N/c2cnc(O)c(O)c2)cc1`: 20.9 µM and 22.9 µM.
`O=S(=O)(Nc1nnc2c3ccccc3ccn12)c1ccc(F)cc1S`: the results for the IC50 in experiment [1] and in experiment [2] were 47.9 µM and 51.3 µM, respectively.
The corresponding values for `Cc1cc(S(=O)(=O)NC(=NN)Nc2ccc(Cl)cc2)c(S)cc1Cl` are 3.55 µM and 3.55 µM.
The matching figures for `CC(=O)C(/N=N/c1ccc(S(=O)(=O)Nc2ccccn2)cc1)C(=O)Nc1ccccc1C` (configuration not stated): 72.4 µM and 66.1 µM.
The corresponding values for `O=C(Nc1ccc(F)cc1)c1cc(S(=O)(=O)Nc2nncn2-c2ccc(F)cc2)c(S)cc1Cl` are 37.2 µM and 79.4 µM.
As for `Cc1cc(S(=O)(=O)Nc2nc(N)nc3nc4ccccc4n23)c(S)cc1Cl`, the IC50 in experiment [1] was 7.76 µM; in experiment [2], 9.77 µM.
The corresponding values for `O=C(CC(Sc1[nH]cnc2ncnc1-2)Sc1[nH]cnc2ncnc1-2)Nc1ccc(S(=O)(=O)Nc2ccc(/N=N/c3ccccc3)cc2)cc1` are 112 µM and 141 µM.
The matching figures for `COc1cccc(Nc2n[nH]c(NS(=O)(=O)c3cc(C)c(Cl)cc3S)n2)c1`: 20.9 µM and 6.31 µM.
As to `O=C(O)c1cc2ccccc2c(/N=N/c2ccc(S(=O)(=O)Nc3nccs3)cc2)c1O`, the IC50 in experiment [1] is 42.7 µM; in experiment [2] it was 21.4 µM.
For `Cc1ccc(-n2cnnc2NS(=O)(=O)c2cc(C(=O)Nc3ccccc3)c(Cl)cc2S)cc1`, the IC50 in experiment [1] is 10 µM; in experiment [2] it was 6.03 µM.
The corresponding values for `Cc1cc(S(=O)(=O)Nc2nc3ccccc3[nH]2)c(S)cc1Cl` are 43.7 µM and 38.9 µM.
As for `Cc1cc(S(=O)(=O)Nc2nc3ccccc3nc2-c2cccc([N+](=O)[O-])c2)c(S)cc1Cl`, the IC50 is 7.94 µM in experiment [1] and 15.1 µM in experiment [2].
With `CC1N=NC(c2ccc(S(=O)(=O)NC3SC(=S)NC3=O)cc2)S1` (configuration not stated), the values for the half-maximal inhibitory concentration (IC50) in experiment [1] and in experiment [2] were 19.1 µM and 24 µM, respectively.
The corresponding values for `CCCCn1cnnc1NS(=O)(=O)c1cc(C(=O)Nc2ccc(Cl)cc2)c(Cl)cc1S` are 43.7 µM and 36.3 µM.
The corresponding values for `COc1cc(Nc2nnc(NS(=O)(=O)c3cc(C)c(Cl)cc3S)[nH]2)cc(OC)c1OC` are 16.6 µM and 15.5 µM.

Values taken from ChEMBL document CHEMBL1148381, “Application of CoMFA and CoMSIA 3D-QSAR and docking studies in optimization of mercaptobenzenesulfonamides as HIV-1 integrase inhibitors” (J Med Chem, 2004).
